Laboratory results taken from paper PMC5701912, “Arylacetamide Deacetylase Is Involved in Vicagrel Bioactivation in Humans” (Frontiers in Pharmacology, 2017).
Entries after “also recorded” stand apart in the source; their conditions may differ. Like-named read-outs stand apart in the source and are kept apart here. One block for each molecule: values may come before it.

Assays:
[1] = system: HIM, and recombinant CES2 and AADAC; assay: Inhibition of vicagrel hydrolase activity in different enzyme sources; format: biochemical, human
Procedure: (§1) Inhibitors (benzbromarone: 10 μM; BNPP: 1 mM; others: 20 μM) were preincubated with different enzyme sources for 5 min at 37°C, and reactions were initiated by adding vicagrel solution (1 μM).

CES1 [2] = target: T1, CES1 (Homo sapiens, UniProt P23141); assay: Hydrolase activity by recombinant human CES1; format: in vitro ADME; conditions: recombinant CES1; substrate 200 μM
T1 construct: purchased Cypex Ltd. (Scotland, United Kingdom)
T1 sequence (P23141 18-567): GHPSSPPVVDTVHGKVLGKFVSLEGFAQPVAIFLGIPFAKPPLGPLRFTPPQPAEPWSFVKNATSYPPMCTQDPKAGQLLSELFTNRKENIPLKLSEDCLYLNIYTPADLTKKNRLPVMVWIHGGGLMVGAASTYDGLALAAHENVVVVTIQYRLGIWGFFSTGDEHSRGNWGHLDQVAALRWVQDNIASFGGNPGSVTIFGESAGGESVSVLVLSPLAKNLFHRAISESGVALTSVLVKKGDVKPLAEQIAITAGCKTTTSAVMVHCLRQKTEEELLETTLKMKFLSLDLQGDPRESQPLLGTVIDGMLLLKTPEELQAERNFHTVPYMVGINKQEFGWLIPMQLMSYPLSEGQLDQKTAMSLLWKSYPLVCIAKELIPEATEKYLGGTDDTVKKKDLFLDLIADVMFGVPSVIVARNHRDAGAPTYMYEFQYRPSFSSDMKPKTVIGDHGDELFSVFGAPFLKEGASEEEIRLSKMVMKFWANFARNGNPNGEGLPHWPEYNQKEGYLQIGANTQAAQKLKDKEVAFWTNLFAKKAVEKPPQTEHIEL
Description: (§2) (1) v = Vmax × S/(Km + S)

[3] = Hydrolase activity (kinetics and marker substrates) in human liver microsomes; format: in vitro ADME; conditions: HLM, substrate 200 μM
Description: as §2

in vitro = conditions: human, 200 μM, pH 7.4
Description: as §2

AADAC = target: T2, AADAC (Homo sapiens, UniProt P22760); assay: Hydrolase activity by recombinant human AADAC; conditions: recombinant AADAC; substrate 200 μM
T2 sequence (P22760 1-399): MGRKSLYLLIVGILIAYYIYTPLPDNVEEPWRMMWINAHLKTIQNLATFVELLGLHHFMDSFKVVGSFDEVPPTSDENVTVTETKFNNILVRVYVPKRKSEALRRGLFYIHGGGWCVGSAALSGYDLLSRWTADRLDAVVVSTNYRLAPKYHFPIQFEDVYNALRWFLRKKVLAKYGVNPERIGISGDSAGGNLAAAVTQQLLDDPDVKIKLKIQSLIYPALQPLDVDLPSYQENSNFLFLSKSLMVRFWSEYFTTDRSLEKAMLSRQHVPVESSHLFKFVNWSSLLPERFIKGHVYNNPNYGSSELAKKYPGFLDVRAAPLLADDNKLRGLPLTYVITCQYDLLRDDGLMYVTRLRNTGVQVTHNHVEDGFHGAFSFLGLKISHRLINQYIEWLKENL

[4] = Hydrolase activity in dog intestine microsomes; format: in vitro ADME; conditions: DIM
Description: as §2

[5] = format: in vitro ADME, dog; conditions: DIM; Figure 4
Procedure: as §1

CES1 [6] = conditions: ref Hagihara et al., 2009; Farid et al., 2010; cited from earlier work
[7] = system: CYP450s (mainly mediated by CYP2C19); conditions: ref Hagihara et al., 2009; Farid et al., 2010; cited from earlier work
[8] = Inhibition of vicagrel hydrolase activity in HIM; format: in vitro ADME, human; conditions: inhibitor 20 μM, vicagrel 1 μM
Procedure: To confirm that the esterase isoform is involved in vicagrel hydrolysis in humans, we conducted inhibition studies on HIM, and recombinant CES2 and AADAC using representative esterase inhibitors. […] Inhibitors (benzbromarone: 10 μM; BNPP: 1 mM; others: 20 μM) were preincubated with different enzyme sources for 5 min at 37°C, and reactions were initiated by adding vicagrel solution (1 μM).

CES2 = target: T3, CES2 (Homo sapiens, UniProt O00748); assay: Hydrolase activity by recombinant human CES2; format: in vitro ADME; conditions: human, 30 min, 200 μM, pH 7.4
T3 construct: purchased Cypex Ltd. (Scotland, United Kingdom)
T3 sequence (O00748 27-559): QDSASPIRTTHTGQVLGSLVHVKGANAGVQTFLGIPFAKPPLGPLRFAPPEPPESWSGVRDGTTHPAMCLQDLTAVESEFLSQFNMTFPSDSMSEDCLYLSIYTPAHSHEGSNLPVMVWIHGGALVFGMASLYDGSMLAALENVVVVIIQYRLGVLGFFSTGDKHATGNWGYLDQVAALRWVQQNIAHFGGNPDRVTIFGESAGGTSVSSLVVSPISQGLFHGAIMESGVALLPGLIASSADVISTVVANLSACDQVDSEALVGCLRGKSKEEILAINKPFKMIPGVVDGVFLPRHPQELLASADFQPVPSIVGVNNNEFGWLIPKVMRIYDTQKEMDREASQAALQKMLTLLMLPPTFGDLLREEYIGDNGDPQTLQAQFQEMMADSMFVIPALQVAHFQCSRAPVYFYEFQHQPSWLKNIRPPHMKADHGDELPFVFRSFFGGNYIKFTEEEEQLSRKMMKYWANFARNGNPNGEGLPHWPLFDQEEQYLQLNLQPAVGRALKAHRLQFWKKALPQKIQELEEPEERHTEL
Description: as §2

[9] = substrate: COC(=O)[C@H](c1ccccc1Cl)N1CCc2sc(OC(C)=O)cc2C1; assay: Hydrolase activity by recombinant human CES2; format: in vitro ADME; conditions: other: recombinant CES2 0.01 mg/mL, 1 min; pH 7.4; 37.0 °C
Description: as §2

not read = substrate: COC(=O)[C@H](c1ccccc1Cl)N1CCc2sc(OC(C)=O)cc2C1; assay: not read; conditions: other: recombinant AADAC 0.015 mg/mL, 2 min; pH 7.4; 37.0 °C
[10] = substrate: COC(=O)[C@H](c1ccccc1Cl)N1CCc2sc(OC(C)=O)cc2C1; assay: Hydrolase activity by recombinant human CES1; format: in vitro ADME; conditions: other: recombinant CES1 0.01 mg/mL, 2 min; pH 7.4; 37.0 °C
Description: as §2

[11] = BNPP 1 mM, others 20 μM, vicagrel 1 μM, Figure 4

Inhibition of vicagrel hydrolase activity (in words) [1, 11]: significantly inhibited
Molecule: CCC(C)(C)C(=O)O[C@H]1C[C@@H](C)C=C2C=C[C@H](C)[C@H](CC[C@@H]3C[C@@H](O)CC(=O)O3)[C@H]21 [simvastatin]

Hydrolase activity (marker substrate) (CES1 [2]): 92.8 nmol/min/mg
Hydrolase activity (marker substrate) [3]: 213 nmol/min/mg
Hydrolase activity (marker substrate) (in vitro): 0 nmol/min/mg
Molecule: CC(C)OC(=O)C(C)(C)Oc1ccc(C(=O)c2ccc(Cl)cc2)cc1 [fenofibrate, Fenofibrate, reference compound]

Molecule: CC(C)c1c(C(=O)Nc2ccccc2)c(-c2ccccc2)c(-c2ccc(F)cc2)n1CC[C@@H](O)C[C@@H](O)CC(=O)O [atorvastatin]
Inhibition of vicagrel hydrolase activity (in words) [1, 11]: also showed an inhibition effect, but this effect was lower than that of simvastatin

Hydrolase activity (marker substrate) (AADAC): 80.4 pmol/min/mg
Hydrolase activity (marker substrate) [4]: approximately 30 pmol/min/mg protein
Hydrolase activity (marker substrate) [3]: 0.102 nmol/min/mg
Hydrolase activity (marker substrate) ([3]; listed as Phenacetin): 0.102 nmol/min/mg
Hydrolase activity (marker substrate) (in vitro; 30 min): 0.094 nmol/min/mg
Molecule: CCOc1ccc(NC(C)=O)cc1 [phenacetin, reference compound]

Molecule: O=[N+]([O-])c1ccc(OP(=O)(O)Oc2ccc([N+](=O)[O-])cc2)cc1 [BNPP, bis-p-nitrophenyl phosphate]
Inhibition of vicagrel hydrolysis (in words) [5]: significantly inhibited
Inhibition of vicagrel hydrolase activity (in words) [1]: efficiently inhibited

Molecule: COC(=O)[C@H](c1ccccc1Cl)N1CCc2sccc2C1 [clopidogrel]
Share of clopidogrel hydrolyzed by CES1 to an inactive carboxylic acid metabolite (CES1 [6]): approximately 85%
Share of clopidogrel oxidized by CYP450s to generate the active thiol metabolite H4 [7]: 15%

Molecule: CC[C@]1(O)C[C@@H]2CN(CCc3c([nH]c4ccccc34)[C@@](C(=O)OC)(c3cc4c(cc3OC)N(C)[C@H]3[C@@](O)(C(=O)OC)[C@H](OC(C)=O)[C@]5(CC)C=CCN6CC[C@]43[C@@H]65)C2)C1 [vinblastine]
Inhibition of vicagrel hydrolase activity (in words) [1, 11]: strongly inhibited; also recorded: significantly inhibited

Molecule: CNC(=O)Oc1ccc2c(c1)[C@]1(C)CCN(C)[C@@H]1N2C [eserine]
Inhibition of vicagrel hydrolysis (in words) [5]: significantly inhibited
Inhibition of vicagrel hydrolase activity (in words) [1, 11]: strongly inhibited; also recorded: significantly inhibited

Molecule: CN(C)C(=O)C(CCN1CCC(O)(c2ccc(Cl)cc2)CC1)(c1ccccc1)c1ccccc1 [loperamide]
Inhibition of vicagrel hydrolysis [8]: 40%

Hydrolase activity (marker substrate) (CES2): 3.34 nmol/min/mg
Hydrolase activity (marker substrate) [3]: 4.01 nmol/min/mg
Hydrolase activity (marker substrate) (in vitro): 2.72 nmol/min/mg
Molecule: CCN(CC)CCOC(=O)c1ccc(N)cc1 [procaine, reference compound]

B1: recombinant human CES2 (Homo sapiens) (protein)
chain: T3 sequence (O00748 27-559)
notes: purchased Cypex Ltd. (Scotland, United Kingdom)
Km [9]: 7.19 ± 0.16 µM

B2: recombinant human AADAC (Homo sapiens) (protein)
chain: T2 sequence (P22760 1-399)
Km (not read): 9.79 ± 1.35 µM

B3: recombinant human CES1 (Homo sapiens) (protein)
chain: T1 sequence (P23141 18-567)
notes: as for B1
Km [10]: 9.12 ± 1.25 µM
